Values joined by “and” are separate entries in the source; they are usually repeats but may differ in a detail not shown here. Equal values may be shown once. Inconclusive results and toxic doses are left out.
System: P388 leukemia ip, CD2F1 mice, survival T/C
Experiment: NCI In Vivo Anticancer Drug Screen. Data for tumor model P388 Leukemia (intraperitoneal) in CD2F1 (CDF1) mice
Settings: endpoint: median survival time, higher = longer survival
Procedure, shortened: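 Mice carrying the transplanted tumor received test compound or vehicle. Survival was recorded in each group, and the value is the treated-group measurement divided by that of the vehicle-treated control group.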

[1] = dose: 50.0 mg/kg/injection, schedule: Q01DX005 (ip), vehicle: Klucel (hydroxypropylcellulose) (HPC)
[2] = dose: 100.0 mg/kg/injection, schedule: Q01DX005 (ip), vehicle: Klucel (hydroxypropylcellulose) (HPC)
[3] = dose: 200.0 mg/kg/injection, schedule: Q01DX005 (ip), vehicle: Klucel (hydroxypropylcellulose) (HPC)
[4] = dose: 50.0 mg/kg/injection, schedule: Q01DX009 (ip), vehicle: saline with Tween-80
[5] = dose: 100.0 mg/kg/injection, schedule: Q01DX009 (ip), vehicle: saline with Tween-80
[6] = dose: 200.0 mg/kg/injection, schedule: Q01DX009 (ip), vehicle: saline with Tween-80
[7] = dose: 12.5 mg/kg/injection, schedule: Q01DX009 (ip), vehicle: saline with Tween-80
[8] = dose: 25.0 mg/kg/injection, schedule: Q01DX009 (ip), vehicle: saline with Tween-80
[9] = dose: 50.0 mg/kg/injection, schedule: Q01DX009 (ip), vehicle: saline
[10] = dose: 50.0 mg/kg/injection, schedule: Q01DX009 (ip), vehicle: Klucel (hydroxypropylcellulose) (HPC)
[11] = dose: 100.0 mg/kg/injection, schedule: Q01DX009 (ip), vehicle: Klucel (hydroxypropylcellulose) (HPC)
[12] = dose: 200.0 mg/kg/injection, schedule: Q01DX009 (ip), vehicle: Klucel (hydroxypropylcellulose) (HPC)

In the case of `O=C(Nc1nnc(-c2ccccc2)s1)c1cc(=O)c2cc(Cl)ccc2o1`, the T/C [1] is reported as 114 % of control, the T/C [2] is reported as 98 % of control and the T/C [3] is reported as 106 % of control.

`C1CC[N-]CC1.C1CC[N-]CC1.C1CC[N-]CC1.C1CC[N-]CC1.O=S(=O)(O)O.[Cu+2]` was tested, and the T/C (dose: 10.0 mg/kg/injection, schedule: Q04DX002 (ip), vehicle: saline) was 100 % of control and the T/C (dose: 20.0 mg/kg/injection, schedule: Q04DX002 (ip), vehicle: saline) was 110 % of control.

`CC(=O)SSC(C)(C)C` was tested, and the T/C (dose: 50.0 mg/kg/injection, schedule: Q01DX005 (ip), vehicle: saline) was 105 % of control, the T/C (dose: 100.0 mg/kg/injection, schedule: Q01DX005 (ip), vehicle: saline) was 114 % of control and the T/C (dose: 200.0 mg/kg/injection, schedule: Q01DX005 (ip), vehicle: saline) was 103 % of control.

With `c1ccc(N=C2CCCCC2)cc1` the T/C (dose: 100.0 mg/kg/injection, schedule: Q01DX001 (ip), vehicle: other) was 98 % of control, the T/C (dose: 200.0 mg/kg/injection, schedule: Q01DX001 (ip), vehicle: other) was 97 % of control and the T/C (dose: 400.0 mg/kg/injection, schedule: Q01DX001 (ip), vehicle: other) was 106 % of control. The T/C (dose: 600.0 mg/kg/injection, schedule: Q01DX001 (ip), vehicle: other) was 101 % of control.

For `CS(=O)(=O)Nc1ccc(Nc2c3ccccc3nc3cc(Cl)ccc23)cc1`, the T/C (dose: 100.0 mg/kg/injection, schedule: Q04DX003 (ip), vehicle: saline) was 181 % of control and the T/C (dose: 200.0 mg/kg/injection, schedule: Q04DX003 (ip), vehicle: saline) was 240 % of control.

For `COc1cc(C2C(C(=O)OC/C=C/c3ccc4c(c3)OCO4)C(c3cc(OC)c(OC)c(OC)c3)C2C(=O)OC/C=C/c2ccc3c(c2)OCO3)cc(OC)c1OC` (configuration not stated), the T/C [4] was 87 % of control, the T/C [5] was 93 % of control and the T/C [6] was 95 % of control. The T/C (dose: 400.0 mg/kg/injection, schedule: Q01DX009 (ip), vehicle: saline with Tween-80) was 102 % of control.

`N=C(N)SCc1c2ccccc2cc2ccccc12` was tested, and the T/C (dose: 22.0 mg/kg/injection, schedule: Q01DX009 (ip), vehicle: saline with Tween-80) was 109 % of control, the T/C (dose: 33.0 mg/kg/injection, schedule: Q01DX009 (ip), vehicle: saline with Tween-80) was 109 % of control and the T/C [4] was 109 % of control. The T/C (dose: 75.0 mg/kg/injection, schedule: Q01DX009 (ip), vehicle: saline with Tween-80) was 118 % of control and the T/C (dose: 100.0 mg/kg/injection, schedule: Q04DX003 (ip), vehicle: saline with Tween-80) was 118 % of control.

With `CCOC(=O)N1CC23C(C)C(C)=C(C)C2C3(C)N1C(=O)OCC` (configuration not stated) the T/C [1] was 100 % of control, the T/C [2] was 100 % of control and the T/C [3] was 98 % of control.

In the case of `CC(=NC(C)(C)C)N1CCOCC1`, the T/C (dose: 50.0 mg/kg/injection, schedule: Q01DX009 (ip), vehicle: saline + Tween-80 + alcohol) is reported as 101 % of control, the T/C (dose: 100.0 mg/kg/injection, schedule: Q01DX009 (ip), vehicle: saline + Tween-80 + alcohol) is reported as 100 % of control and the T/C (dose: 200.0 mg/kg/injection, schedule: Q01DX009 (ip), vehicle: saline + Tween-80 + alcohol) is reported as 88 % of control.

In the case of `C/C(=N\NC(=S)N1CCCCCC1)c1ccccn1`, the T/C (dose: 0.78 mg/kg/injection, schedule: Q01DX009 (ip), vehicle: saline with Tween-80) is reported as 99 % of control and 96 % of control, the T/C (dose: 1.56 mg/kg/injection, schedule: Q01DX009 (ip), vehicle: saline with Tween-80) is reported as 99 % of control and 103 % of control and the T/C (dose: 3.12 mg/kg/injection, schedule: Q01DX009 (ip), vehicle: saline with Tween-80) is reported as 90 % of control. The T/C (dose: 3.13 mg/kg/injection, schedule: Q01DX009 (ip), vehicle: saline with Tween-80) was 121 % of control and 95 % of control, the T/C (dose: 6.25 mg/kg/injection, schedule: Q01DX009 (ip), vehicle: saline with Tween-80) was 100 % of control and 112 % of control and 117 % of control and the T/C [7] was 103 % of control.

In the case of `Cc1c2c[n+](CCCCCCCC[n+]3ccc4c(C)c5c(c(C)c4c3)c3ccccc3n5CCO)ccc2c(C)c2c1c1ccccc1n2CCO`, the T/C (dose: 0.78 mg/kg/injection, schedule: Q04DX003 (ip), vehicle: distilled water + Tween-80) is reported as 154 % of control, the T/C (dose: 1.56 mg/kg/injection, schedule: Q04DX003 (ip), vehicle: distilled water + Tween-80) is reported as 155 % of control and 157 % of control and the T/C (dose: 6.25 mg/kg/injection, schedule: Q04DX003 (ip), vehicle: distilled water + Tween-80) is reported as 155 % of control and 158 % of control. The T/C (dose: 12.5 mg/kg/injection, schedule: Q04DX003 (ip), vehicle: distilled water + Tween-80) was 158 % of control and 184 % of control, the T/C (dose: 25.0 mg/kg/injection, schedule: Q04DX003 (ip), vehicle: distilled water + Tween-80) was 184 % of control and the T/C (dose: 50.0 mg/kg/injection, schedule: Q04DX003 (ip), vehicle: distilled water + Tween-80) was 87 % of control.

With `Nc1nc2nc[nH]c2c(=O)[nH]1` the T/C [8] was 97 % of control, the T/C [4] was 98 % of control and the T/C [5] was 90 % of control. The T/C (dose: 100.0 mg/kg/injection, schedule: Q01DX009 (ip), vehicle: suspension in saline) was 97 % of control, the T/C [6] was 90 % of control and the T/C (dose: 200.0 mg/kg/injection, schedule: Q01DX009 (ip), vehicle: suspension in saline) was 92 % of control. For the same molecule, the T/C (dose: 400.0 mg/kg/injection, schedule: Q01DX009 (ip), vehicle: suspension in saline) was 87 % of control.

`CSc1cccc(N=C(N)N)c1` was tested, and the T/C [9] was 100 % of control and the T/C (dose: 100.0 mg/kg/injection, schedule: Q01DX009 (ip), vehicle: saline) was 98 % of control.

With `Cc1c(Cl)cccc1N=Cc1cccs1` the T/C [10] was 105 % of control, the T/C [11] was 105 % of control and the T/C [12] was 105 % of control.

With `Cc1cc[n+](CC(N)=O)cc1` the T/C (dose: 12.5 mg/kg/injection, schedule: Q01DX009 (ip), vehicle: saline) was 96 % of control, the T/C (dose: 25.0 mg/kg/injection, schedule: Q01DX009 (ip), vehicle: saline) was 94 % of control and the T/C [9] was 96 % of control.

In the case of `O=C1c2ccccc2C2=Cc3ccccc3C(O)N12` (configuration not stated), the T/C (dose: 60.0 mg/kg/injection, schedule: Q01DX005 (ip), vehicle: saline with Tween-80) is reported as 104 % of control, the T/C (dose: 120.0 mg/kg/injection, schedule: Q01DX005 (ip), vehicle: saline with Tween-80) is reported as 100 % of control and the T/C (dose: 240.0 mg/kg/injection, schedule: Q01DX005 (ip), vehicle: saline with Tween-80) is reported as 100 % of control.

In the case of `COc1cc2c(cc1Br)C(=O)C(Br)(Br)CCC2Br` (configuration not stated), the T/C [10] is reported as 118 % of control, the T/C [11] is reported as 118 % of control and the T/C [12] is reported as 114 % of control.

For `Cn1c(/C=N/N2CCOCC2)cnc1[N+](=O)[O-]`, the T/C [4] was 106 % of control, the T/C [5] was 109 % of control and the T/C [6] was 110 % of control.

For `CN=C1N=C(c2ccc(C(C)(C)C)cc2)C(O)(c2ccc(C(C)(C)C)cc2)N1` (configuration not stated), the T/C (dose: 25.0 mg/kg/injection, schedule: Q04DX002 (ip), vehicle: saline with Tween-80) was 104 % of control and the T/C (dose: 50.0 mg/kg/injection, schedule: Q04DX002 (ip), vehicle: saline with Tween-80) was 117 % of control.

In the case of `CC(C)(C)n1nc(C2CC2)c(Br)c1NC(=O)c1ccccc1Cl`, the T/C (dose: 30.0 mg/kg/injection, schedule: Q01DX005 (ip), vehicle: Klucel (hydroxypropylcellulose) (HPC)) is reported as 106 % of control, the T/C (dose: 60.0 mg/kg/injection, schedule: Q01DX005 (ip), vehicle: Klucel (hydroxypropylcellulose) (HPC)) is reported as 109 % of control and the T/C (dose: 120.0 mg/kg/injection, schedule: Q01DX005 (ip), vehicle: Klucel (hydroxypropylcellulose) (HPC)) is reported as 105 % of control. For the same molecule, the T/C (dose: 240.0 mg/kg/injection, schedule: Q01DX005 (ip), vehicle: Klucel (hydroxypropylcellulose) (HPC)) was 100 % of control.

In the case of `Clc1c(CBr)ccc(CBr)c1Cl`, the T/C [7] is reported as 100 % of control, the T/C [8] is reported as 100 % of control and the T/C [4] is reported as 115 % of control.

For `CC1C(=O)OC2C(O)C34C5OC(=O)C3(OC3OC(=O)C(O)C34C(C(C)(C)C)C5O)C12O` (configuration not stated), the T/C (dose: 5.0 mg/kg/injection, schedule: Q01DX005 (ip), vehicle: Klucel (hydroxypropylcellulose) (HPC)) was 93 % of control, the T/C (dose: 10.0 mg/kg/injection, schedule: Q01DX005 (ip), vehicle: Klucel (hydroxypropylcellulose) (HPC)) was 95 % of control and the T/C (dose: 20.0 mg/kg/injection, schedule: Q01DX005 (ip), vehicle: Klucel (hydroxypropylcellulose) (HPC)) was 89 % of control. The T/C (dose: 40.0 mg/kg/injection, schedule: Q01DX005 (ip), vehicle: Klucel (hydroxypropylcellulose) (HPC)) was 93 % of control and the T/C (dose: 80.0 mg/kg/injection, schedule: Q01DX005 (ip), vehicle: Klucel (hydroxypropylcellulose) (HPC)) was 89 % of control.

With `Cc1ccc2ccccc2c1N(CC(=O)O)S(=O)(=O)c1ccccc1` (tested in a mixture with another compound) the T/C (dose: 12.5 mg/kg/injection, schedule: Q01DX001 (ip), vehicle: saline with Tween-80) was 110 % of control, the T/C (dose: 25.0 mg/kg/injection, schedule: Q01DX001 (ip), vehicle: saline with Tween-80) was 105 % of control and the T/C (dose: 50.0 mg/kg/injection, schedule: Q01DX001 (ip), vehicle: saline with Tween-80) was 110 % of control.

Reference: PubChem BioAssay AID330 (DTP/NCI, 2004)
